Source: paper PMC11207335, “In Vitro Metabolism and Transport Characteristics of Zastaprazan” (Pharmaceutics, 2024)
Values joined by “and” are separate entries in the source; they are usually repeats but may differ in a detail not shown here. Equal values may be shown once. Read-outs that look alike come from different tables or passages of the source. Each block holds one molecule with its values, some of them ahead of it.

Experiments:
[1] = test system: histamine-stimulated gastric acid secretion; design: method as in PMID 36504556; conditions: Heidenhain pouch dog model; cited from earlier work
[2] = cited from earlier work
gastric acid secretion = conditions: lumen-perfused rat model, among JP-1366, vonoprazan, and tegoprazan; cited from earlier work
gastric pH = conditions: cited from earlier work; for % time pH > 4.0 over a period of 24 h: 40 mg dose group, healthy subjects
Cl^- channel = assay: BioPrint profiling, Cl- channel; conditions: BioPrint profiling (Eurofins CEREP)
MT1 = MT1 (Homo sapiens, UniProt P48039); assay: BioPrint profiling, MT1; conditions: BioPrint profiling (Eurofins CEREP)
Sequence of MT1 (P48039 whole entry): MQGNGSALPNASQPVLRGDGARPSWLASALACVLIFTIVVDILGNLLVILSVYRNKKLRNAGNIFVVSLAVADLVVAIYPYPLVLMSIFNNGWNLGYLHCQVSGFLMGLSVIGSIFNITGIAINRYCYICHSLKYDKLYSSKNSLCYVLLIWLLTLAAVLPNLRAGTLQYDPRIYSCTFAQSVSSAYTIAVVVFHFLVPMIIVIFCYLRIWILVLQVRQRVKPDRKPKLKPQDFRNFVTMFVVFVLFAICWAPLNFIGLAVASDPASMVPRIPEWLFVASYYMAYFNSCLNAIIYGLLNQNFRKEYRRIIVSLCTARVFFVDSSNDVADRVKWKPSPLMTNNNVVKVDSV
Text: However, the involvement of multiple metabolizing enzymes such as CYP1A2, CYP2C9/19, CYP1A2, and CYP2D6 with a minor contribution in the formation of M1, M6, M19, and M21 and the involvement of UGT1A1 and UGT2B7 in the formation of M15 from M1 and the formation of 23 metabolites might reduce the risk of drug–drug interaction potential mediated by a single metabolizing enzyme and a main metabolite. Additionally, it may reduce the intersubject variability caused by genetic variations in these metabolizing enzymes.

[3] = Metabolic stability of JP-1366 in monkey hepatocytes; format: in vitro ADME; conditions: cryopreserved monkey hepatocytes
Description: (§1) According to the manufacturer’s protocol, cryopreserved human, dog, monkey, mouse, and rat hepatocytes were purified and recovered. […] The metabolic reaction in each sample well was quenched by adding 120 μL of ice-cold acetonitrile.
(§2) Log-transformed relative responses of JP-1366 were plotted against incubation time, thereby obtaining the elimination slope (k) from the linear regression analysis. […] (1) t1 /2(min)=ln2/kelimination slope (2) Clint(mL/min/kg)=ln2/t1/2×mL incubation/hepatocyte (10^6 cells)×B×10^6 cells/g liver×A g liver/kg BW (3) Clhep(mL/min/kg)=Qh×Clint/Qh+Clint (4) HER=Clhep/Qh
(§3) Here, A means the liver weight parameters and has values of 25.7, 32, 30, 87.5, and 40; B means the cell number parameters and has values of 139, 215, 120, 135, and 117; Qh represents hepatic blood flow and has values of 20.7, 30.9, 43.6, 90, and 55.2 mL/min/kg for humans, dogs, monkeys, mice, and rats, respectively. Hepatic extraction ratios (HERs) of ≤0.25, 0.25–0.75, and ≥0.75 were regarded as low, moderate, and high, respectively.

[4] = Metabolic stability of JP-1366 in rat hepatocytes; format: in vitro ADME; conditions: cryopreserved rat hepatocytes
Description: as §1, §2, §3

rat hepatocytes = assay: Metabolic stability of JP-1366 in rat hepatocytes; format: in vitro ADME; conditions: rat hepatocytes
Description: as §1, §2, §3

[5] = Metabolic stability of JP-1366 in dog hepatocytes; format: in vitro ADME; conditions: cryopreserved dog hepatocytes
Description: as §1, §2, §3

dog hepatocytes = assay: Metabolic stability of JP-1366 in dog hepatocytes; format: in vitro ADME; conditions: dog hepatocytes
Description: as §1, §2, §3

[6] = molecular target: T1, human cDNA-expressed CYP3A4 (Homo sapiens, UniProt P08684); assay: Enzyme kinetics of JP-1366 metabolism in cDNA-expressed CYP3A4; format: in vitro ADME
T1 construct: purchased Corning Life Sciences
T1 sequence (P08684 whole entry): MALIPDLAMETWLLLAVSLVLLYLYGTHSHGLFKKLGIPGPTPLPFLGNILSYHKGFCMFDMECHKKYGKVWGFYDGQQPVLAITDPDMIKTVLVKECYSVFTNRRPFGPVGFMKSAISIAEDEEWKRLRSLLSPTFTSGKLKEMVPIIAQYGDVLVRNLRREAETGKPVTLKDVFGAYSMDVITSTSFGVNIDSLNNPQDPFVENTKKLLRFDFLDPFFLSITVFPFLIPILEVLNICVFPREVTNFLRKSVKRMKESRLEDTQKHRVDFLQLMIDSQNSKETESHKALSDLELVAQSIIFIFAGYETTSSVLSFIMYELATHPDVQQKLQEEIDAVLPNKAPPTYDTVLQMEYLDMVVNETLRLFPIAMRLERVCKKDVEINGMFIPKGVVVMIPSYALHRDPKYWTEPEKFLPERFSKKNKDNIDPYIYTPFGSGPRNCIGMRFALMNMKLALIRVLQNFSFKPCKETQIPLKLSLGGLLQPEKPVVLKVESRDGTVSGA
Description: (§4) The reaction was initiated by adding 5 μL of NADPH-generating system in triplicate, and the mixture was further incubated for 30 min at 37 °C in a shaking water bath.
(§5) The concentrations of the metabolites were quantitated, and their formation rates (pmol/mg protein/min) were calculated by dividing the amounts of metabolites formed from the incubation with human liver microsomes and human cDNA-expressed CYP or UGT enzymes by the incubation time.

H^+/K^+-ATPase = H^+/K^+-ATPase (Homo sapiens, UniProt P20648); conditions: read-out: IC50 for the H^+/K^+-ATPase inhibition; cited from earlier work
Sequence of H^+/K^+-ATPase (P20648 whole entry): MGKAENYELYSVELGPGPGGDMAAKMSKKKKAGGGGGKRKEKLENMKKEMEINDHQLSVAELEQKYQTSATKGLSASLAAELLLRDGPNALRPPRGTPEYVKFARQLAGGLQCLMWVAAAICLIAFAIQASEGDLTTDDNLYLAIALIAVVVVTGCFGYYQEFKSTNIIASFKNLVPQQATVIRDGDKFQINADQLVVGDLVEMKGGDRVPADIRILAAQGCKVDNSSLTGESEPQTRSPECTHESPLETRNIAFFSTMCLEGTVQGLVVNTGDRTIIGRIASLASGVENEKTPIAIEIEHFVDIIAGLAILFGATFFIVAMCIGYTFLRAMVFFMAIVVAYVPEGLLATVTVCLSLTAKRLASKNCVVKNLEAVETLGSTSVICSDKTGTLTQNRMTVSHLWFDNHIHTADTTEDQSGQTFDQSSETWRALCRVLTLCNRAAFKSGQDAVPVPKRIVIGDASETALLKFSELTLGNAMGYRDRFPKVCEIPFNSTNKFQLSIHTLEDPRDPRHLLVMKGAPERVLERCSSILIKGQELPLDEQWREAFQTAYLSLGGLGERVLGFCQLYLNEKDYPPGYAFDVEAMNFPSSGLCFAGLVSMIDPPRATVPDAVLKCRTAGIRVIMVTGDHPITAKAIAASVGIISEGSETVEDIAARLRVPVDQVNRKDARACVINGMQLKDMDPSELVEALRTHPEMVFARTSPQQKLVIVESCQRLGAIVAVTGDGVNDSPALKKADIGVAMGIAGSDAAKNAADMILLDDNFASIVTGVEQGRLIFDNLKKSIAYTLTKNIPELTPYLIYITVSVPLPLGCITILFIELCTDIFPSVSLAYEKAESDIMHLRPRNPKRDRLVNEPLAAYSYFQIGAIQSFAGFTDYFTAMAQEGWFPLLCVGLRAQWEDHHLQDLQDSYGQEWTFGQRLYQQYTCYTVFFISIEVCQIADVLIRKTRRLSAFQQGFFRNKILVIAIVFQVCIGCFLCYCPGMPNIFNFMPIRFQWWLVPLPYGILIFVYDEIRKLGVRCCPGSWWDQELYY
Sequence of H^+/K^+-ATPase (P51164 whole entry partner): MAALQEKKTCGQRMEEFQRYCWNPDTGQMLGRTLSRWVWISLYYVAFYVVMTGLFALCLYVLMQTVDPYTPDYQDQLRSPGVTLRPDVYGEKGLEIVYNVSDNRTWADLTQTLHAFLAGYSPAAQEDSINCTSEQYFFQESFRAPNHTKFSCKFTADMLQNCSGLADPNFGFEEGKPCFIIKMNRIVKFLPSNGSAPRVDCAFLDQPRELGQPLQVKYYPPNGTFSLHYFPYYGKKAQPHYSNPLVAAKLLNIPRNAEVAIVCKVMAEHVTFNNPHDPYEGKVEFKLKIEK

[7] = molecular target: T2, human cDNA-expressed CYP3A5 (Homo sapiens, UniProt P20815); assay: Enzyme kinetics of JP-1366 metabolism in cDNA-expressed CYP3A5; format: in vitro ADME
T2 construct: purchased Corning Life Sciences
T2 sequence (P20815 whole entry): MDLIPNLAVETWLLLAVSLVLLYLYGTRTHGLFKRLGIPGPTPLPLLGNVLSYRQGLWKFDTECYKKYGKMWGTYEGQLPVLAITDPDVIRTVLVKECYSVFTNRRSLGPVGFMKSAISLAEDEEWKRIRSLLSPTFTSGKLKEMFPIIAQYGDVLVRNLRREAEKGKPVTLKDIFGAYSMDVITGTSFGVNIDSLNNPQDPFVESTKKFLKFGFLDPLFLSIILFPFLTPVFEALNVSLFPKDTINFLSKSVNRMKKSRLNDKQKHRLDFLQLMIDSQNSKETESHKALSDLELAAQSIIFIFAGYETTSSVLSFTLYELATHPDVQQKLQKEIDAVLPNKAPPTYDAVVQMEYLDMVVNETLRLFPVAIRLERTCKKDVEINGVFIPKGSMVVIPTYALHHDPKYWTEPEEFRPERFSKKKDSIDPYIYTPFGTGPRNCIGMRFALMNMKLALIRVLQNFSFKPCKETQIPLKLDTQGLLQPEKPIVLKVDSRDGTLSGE
Description: as §4, §5

[8] = test system: human liver microsomes (HLM); assay: Enzyme kinetics of JP-1366 metabolism in human liver microsomes; format: in vitro ADME
Description: as §4, §5

[9] = molecular target: T3, human cDNA-expressed CYP2C9 (Homo sapiens, UniProt P11712); assay: Enzyme kinetics of JP-1366 metabolism in cDNA-expressed CYP2C9; format: in vitro ADME
T3 construct: purchased Corning Life Sciences
T3 sequence (P11712 whole entry): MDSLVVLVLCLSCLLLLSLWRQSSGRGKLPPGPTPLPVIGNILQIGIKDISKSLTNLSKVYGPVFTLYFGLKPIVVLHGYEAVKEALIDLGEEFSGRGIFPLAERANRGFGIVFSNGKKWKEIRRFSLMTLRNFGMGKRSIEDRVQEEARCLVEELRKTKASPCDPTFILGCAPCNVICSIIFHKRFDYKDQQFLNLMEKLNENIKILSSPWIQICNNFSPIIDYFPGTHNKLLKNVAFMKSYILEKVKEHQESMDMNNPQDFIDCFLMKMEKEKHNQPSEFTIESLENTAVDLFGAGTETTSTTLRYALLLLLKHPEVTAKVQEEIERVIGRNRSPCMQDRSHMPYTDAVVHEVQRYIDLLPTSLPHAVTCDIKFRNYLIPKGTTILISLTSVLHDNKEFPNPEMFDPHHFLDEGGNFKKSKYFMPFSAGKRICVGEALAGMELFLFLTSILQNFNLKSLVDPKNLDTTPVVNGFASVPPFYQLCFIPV
Description: as §4, §5

[10] = molecular target: T4, human cDNA-expressed CYP1A2 (Homo sapiens, UniProt P05177); assay: Enzyme kinetics of JP-1366 metabolism in cDNA-expressed CYP1A2; format: in vitro ADME
T4 construct: purchased Corning Life Sciences
T4 sequence (P05177 1-516): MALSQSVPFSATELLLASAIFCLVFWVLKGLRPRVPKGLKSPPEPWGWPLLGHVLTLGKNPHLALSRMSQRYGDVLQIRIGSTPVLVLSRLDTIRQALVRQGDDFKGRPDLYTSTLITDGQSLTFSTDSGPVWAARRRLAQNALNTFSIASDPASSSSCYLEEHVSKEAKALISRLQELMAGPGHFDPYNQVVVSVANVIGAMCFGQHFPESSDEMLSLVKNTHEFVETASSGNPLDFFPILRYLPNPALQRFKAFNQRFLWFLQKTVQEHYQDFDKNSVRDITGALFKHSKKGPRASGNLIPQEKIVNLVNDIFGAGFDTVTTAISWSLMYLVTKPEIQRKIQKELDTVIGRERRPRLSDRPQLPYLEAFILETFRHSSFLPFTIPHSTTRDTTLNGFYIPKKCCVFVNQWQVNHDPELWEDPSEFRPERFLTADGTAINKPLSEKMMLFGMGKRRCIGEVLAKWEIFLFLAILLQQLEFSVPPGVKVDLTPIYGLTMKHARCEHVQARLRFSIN
Description: as §4, §5

CYP3A4/5 = assay: Combined contribution of CYP3A4/5 to formation of major JP-1366 metabolites; format: in vitro ADME, human; conditions: sum of CYP3A4 and CYP3A5 contributions
Description: as §4, §5

[11] = formation of the labelled metabolite from JP-1366, CYP3A4
[12] = formation of the labelled metabolite from JP-1366, CYP3A5
[13] = formation of the labelled metabolite from JP-1366, CYP2C9
[14] = formation of the labelled metabolite from JP-1366, CYP1A2

IC50 (Cl^- channel): 910 nM
IC50 (MT1): 870 nM
CLint scaled at 1 µM ([3]; monkey hepatocytes, scaled with physiological parameters): 110 mL/min/kg
half-life at 1 µM ([3]; monkey): 48.4 min
CLint scaled at 1 µM ([4]; rat hepatocytes, scaled with physiological parameters): 138 mL/min/kg
half-life at 1 µM ([4]; rat): 47.1 min
CLhep (rat hepatocytes): 39.4 mL/min/kg
HER (rat hepatocytes): 0.71
CLint scaled at 1 µM ([5]; dog hepatocytes, scaled with physiological parameters): 150 mL/min/kg
half-life at 1 µM ([5]; dog): 63.5 min
CLhep (dog hepatocytes): 25.6 mL/min/kg
HER (dog hepatocytes): 0.83
Compound: Cc1cccc(C)c1CNc1cc(C(=O)N2CCC2)cn2c(C)c(C)nc12 [JP-1366, 1-azetidinyl(8-(((2,6-dimethylphenyl)methyl)amino)-2,3-dimethylimidazo(1,2-a)pyridin-6-yl)methanone]
inhibition of histamine-stimulated gastric acid secretion [1]: equal to or higher than vonoprazan
safety and tolerability ([2]; SAD up to 60 mg, MAD up to 40 mg, healthy male Korean subjects): safe and well tolerated
dose-normalized AUC among genetic variants of CYP2C19, CYP3A5, CYP2D6, UGT1A1, and UGT2B17 [2]: not significantly different
gastric acid secretion inhibitory effect (gastric acid secretion): fastest-acting and superior gastric acid secretion inhibitory effect
% time pH > 4.0 over a period of 24 h (gastric pH; MAD): 89.28 ± 9.12% and 89.28% ± 9.12%
% time pH > 4.0 over a period of 24 h (gastric pH; SAD): 91.84% ± 4.06%
% time pH > 4 at nighttime (gastric pH; repeated 40 mg dose): 89.28% ± 9.12%

CLint [6, 11]: 0.35 μL/min/pmol CYP
n (Hill coefficient) [6, 11]: 2.9
Contribution (%) ([6]; relative contribution of CYP3A4 to formation of the labelled metabolite): 17.3%
CLint [7, 12]: 0.33 μL/min/pmol CYP
n (Hill coefficient) [7, 12]: 1.5
Contribution (%) ([7]; relative contribution of CYP3A5 to formation of the labelled metabolite): 68.6%
Vmax ([8]; formation of the labelled metabolite from JP-1366, HLM): 826.1 pmol/min/mg protein
Ki ([8]; substrate inhibition kinetics, formation of the labelled metabolite, HLM): 96500 nM
CLint [9, 13]: 0.14 μL/min/pmol CYP
n (Hill coefficient) [9, 13]: 1.2
Contribution (%) ([9]; relative contribution of CYP2C9 to formation of the labelled metabolite): 10.3%
CLint [10, 14]: 0.0014 μL/min/pmol CYP
n (Hill coefficient) [10, 14]: 0.6
Contribution (%) ([10]; relative contribution of CYP1A2 to formation of the labelled metabolite): 0.1%
contribution of CYP3A4/5 to formation of the metabolite from JP-1366 (CYP3A4/5): 85.9%
Compound: Cc1cccc(CO)c1CNc1cc(C(=O)N2CCC2)cn2c(C)c(C)nc12 [M1, azetidin-1-yl(8-((2-(hydroxymethyl)-6-methyl-benzyl)amino)-2,3-dimethylimidazo[1,2-a]pyridin-6-yl)methanone]
IC50 (H^+/K^+-ATPase): 66.5 nM
